According to patent US9604983B2, “Herbicidal 3-(2-benzyloxyphenyl)-2,4-dihydroxy-1,8-naphthyridine derivatives” (SYNGENTA LIMITED, priority 2013, dated 2017):

Key:
Assay in all cases: Post-emergence efficacy, glasshouse pot test
Type in all cases: in vivo
Details in all cases: post-emergence application at 1000 g/ha; evaluated after 13 days; five point scale
[1] = system: Alopecurus myosuroides (ALOMY)
Experimental: (§1) B1 Post-emergence Efficacy Seeds of a variety of test species are sown in standard soil in pots:—Solanum nigrum (SOLNI), Amaranthus retoflexus (AMARE), Setaria faberi (SETFA), Alopecurus myosuroides (ALOMY), Echinochloa crus-galli (ECHCG), Ipomoea hederacea (IPOHE). After 8 days cultivation (post-emergence) under controlled conditions in a glasshouse (at 24/16° C., day/night; 14 hours light; 65% humidity), the plants are sprayed with an aqueous spray solution derived from the formulation of the technical active ingredient in acetone/water (50:50) solution containing 0.5% Tween 20 (polyoxyethelyene sorbitan monolaurate, CAS RN 9005-64-5). Compounds are applied at 1000 g/ha. The test plants are then grown in a glasshouse under controlled conditions in a glasshouse (at 24/16° C., day/night; 14 hours light; 65% humidity) and watered twice daily. After 13 days, the test is evaluated for the percentage damage caused to the plant. The biological activities are shown below in Table 13, on a five point scale (5=80-100%; 4=60-79%; 3=40-59%; 2=20-39%; 1=0-19%).

[2] = system: Amaranthus retoflexus (AMARE)
Experimental: as §1

[3] = system: Echinochloa crus-galli (ECHCG)
Experimental: as §1

[4] = system: Ipomoea hederacea (IPOHE)
Experimental: as §1

[5] = system: Setaria faberi (SETFA)
Experimental: as §1

[6] = system: Solanum nigrum (SOLNI)
Experimental: as §1

| Structure (SMILES) | percentage damage caused to the plant, ALOMY [1] | percentage damage caused to the plant, AMARE [2] | percentage damage caused to the plant, ECHCG [3] | percentage damage caused to the plant, IPOHE [4] | percentage damage caused to the plant, SETFA [5] | percentage damage caused to the plant, SOLNI [6] |
| --- | --- | --- | --- | --- | --- | --- |
| O=c1c(-c2cccc(Cl)c2OCc2ccccc2)c(O)c2cccnc2n1CC(F)F [Compound 12.001] | 1 (1=0-19%) | 5 (5=80-100%) | 1 (1=0-19%) | 5 (5=80-100%) | 1 (1=0-19%) | 5 (5=80-100%) |
| O=c1c(-c2cccc(Cl)c2OCc2ccccc2)c(O)c2nccnc2n1CC(F)F [Compound 12.003] | 2 (2=20-39%) | 5 (5=80-100%) | 5 (5=80-100%) | 5 (5=80-100%) | 5 (5=80-100%) | 5 (5=80-100%) |
